Source: ChEMBL document CHEMBL4732091, “Design, synthesis and biological evaluation of novel thiosemicarbazone-indole derivatives targeting prostate cancer cells” (Eur J Med Chem, 2021)
The source made the active and inactive calls. The rule behind the calls is not given here.

Columns and labels:
[1] = tested on: DU-145; assay: Antiproliferative activity against human DU-145 cell line cells assessed as inhibition of cell proliferation measured after 72 hrs by MTT assay; type: functional, cell-based; conditions: DU-145, 72 h
[2] = Cytotoxicity against human WPMY-1 cell line cells assessed as inhibition of cell proliferation measured after 72 hrs by MTT assay; type: cell-based; conditions: WPMY-1, 72 h
[3] = tested on: PC-3; assay: Antiproliferative activity against human PC-3 cells assessed as inhibition of cell proliferation measured after 24 to 72 hrs by MTT assay; type: functional, cell-based; conditions: dose 0.156-20 µM, time 24-72 hrs
[4] = tested on: PC-3; assay: Antiproliferative activity against human PC-3 cells assessed as inhibition of cell proliferation in presence of Fe3+ measured after 72 hrs by MTT assay; type: functional, cell-based
[5] = tested on: DU-145; assay: Antiproliferative activity against human DU-145 cells assessed as reduction in colony formation at 0.25 to 1 uM measured after 6 days by crystal violet staining based colony assay; type: functional, cell-based; conditions: dose 0.25-1 µM, time 6.0 day
[6] = tested on: PC-3; assay: Induction of cell cycle arrest in human PC-3 cells assessed as accumulation of cells in G1/S phase at 250 nM measured after 48 hrs by propidium iodide staining based flowcytometry method (reference value: 19.23%); type: functional
[7] = tested on: DU-145; assay: Cell cycle arrest in human DU-145 cells assessed as accumulation of cells in G1/S phase by measuring upregulation of p27 measured after 48 hrs by Western blot assay; type: functional, cell-based; conditions: dose 1.5-6 µM
[8] = tested on: PC-3; assay: Induction of apoptosis in human PC-3 cells assessed as viable cells at 25 nM measured after 72 hrs by Annexin V-FITC/propidium iodide staining based flow cytometry method (reference value: 97.2 %); type: functional; conditions: read-out: Activity
[9] = tested on: PC-3; assay: Induction of apoptosis in human PC-3 cells assessed as necrotic cells at 25 nM measured after 72 hrs by Annexin V-FITC/propidium iodide staining based flow cytometry method (reference value: 1.2 %); type: functional
[10] = tested on: PC-3; assay: Induction of apoptosis in human PC-3 cells assessed as necrotic cells at 50 nM measured after 72 hrs by Annexin V-FITC/propidium iodide staining based flow cytometry method (reference value: 1.2 %); type: functional
[11] = tested on: PC-3; assay: Induction of apoptosis in human PC-3 cells assessed as early apoptotic cells at 100 nM measured after 72 hrs by Annexin V-FITC/propidium iodide staining based flow cytometry method (reference value: 0.452 %); type: functional
[12] = tested on: PC-3; assay: Induction of apoptosis in human PC-3 cells assessed as late apoptotic cells at 100 nM measured after 72 hrs by Annexin V-FITC/propidium iodide staining based flow cytometry method (reference value: 1.01 %); type: functional
[13] = tested on: DU-145; assay: Induction of apoptosis in human DU-145 cells assessed as viable cells at 0.5 uM measured after 72 hrs by Annexin V-FITC/propidium iodide staining based flow cytometry method (reference value: 96.3 %); type: functional; conditions: read-out: Activity
[14] = tested on: DU-145; assay: Induction of apoptosis in human DU-145 cells assessed as late apoptotic cells at 0.5 uM measured after 72 hrs by Annexin V-FITC/propidium iodide staining based flow cytometry method (reference value: 1.77 %); type: functional
[15] = tested on: DU-145; assay: Induction of apoptosis in human DU-145 cells assessed as early apoptotic cells at 1 uM measured after 72 hrs by Annexin V-FITC/propidium iodide staining based flow cytometry method (reference value: 0.835 %); type: functional
[16] = tested on: DU-145; assay: Induction of apoptosis in human DU-145 cells assessed as late apoptotic cells at 1 uM measured after 72 hrs by Annexin V-FITC/propidium iodide staining based flow cytometry method (reference value: 1.77 %); type: functional
[17] = tested on: DU-145; assay: Induction of apoptosis in human DU-145 cells assessed as necrotic cells at 1 uM measured after 72 hrs by Annexin V-FITC/propidium iodide staining based flow cytometry method (reference value: 1.13 %); type: functional
[18] = tested on: DU-145; assay: Induction of apoptosis in human DU-145 cells assessed as early apoptotic cells at 2 uM measured after 72 hrs by Annexin V-FITC/propidium iodide staining based flow cytometry method (reference value: 0.835 %); type: functional
[19] = tested on: DU-145; assay: Induction of apoptosis in human DU-145 cells assessed as late apoptotic cells at 2 uM measured after 72 hrs by Annexin V-FITC/propidium iodide staining based flow cytometry method (reference value: 1.77 %); type: functional
[20] = tested on: PC-3; assay: Induction of apoptosis in human PC-3 cells assessed as reduction in Bcl-2 expression at 25 to 100 nM measured by Western blot assay; type: functional, cell-based; conditions: dose 25-100 nM
[21] = tested on: PC-3; assay: Induction of apoptosis in human PC-3 cells assessed as increase in Bax expression at 25 to 100 nM measured by Western blot assay; type: functional, cell-based; conditions: dose 25-100 nM
[22] = tested on: DU-145; assay: Induction of apoptosis in human DU-145 cells assessed as reduction in Bcl-2 expression at 0.5 to 2 uM measured by Western blot assay; type: functional, cell-based; conditions: dose 0.5-2 µM
[23] = tested on: DU-145; assay: Induction of apoptosis in human DU-145 cells assessed as increase in Bax expression at 0.5 to 2 uM measured by Western blot assay; type: functional, cell-based; conditions: dose 0.5-2 µM
[24] = tested on: DU-145; assay: Induction of ROS generation in human DU-145 cells assessed as increase in intracellular ROS level measured after 48 hrs by DCFH-DA staining based flowcytometry method; type: functional, cell-based; conditions: dose 0.5-2 µM
[25] = tested on: PC-3; assay: Activation of MAPK signaling in human PC-3 cells assessed as increase in phosphorylated JNK (Thr 183/Tyr 185) at 125 to 500 nM measured by Western blot assay; type: cell-based; conditions: filed as activator, dose 125-500 nM
[26] = tested on: DU-145; assay: Cytotoxicity against human DU-145 cells assessed as cell viability pre-treated with SB203580 for 4 hrs followed by compound treatment and measured after 72 hrs by MTT assay; type: functional, cell-based
[27] = Toxicity in C57BL/6 mouse assessed as change in body weight at 2 mg/kg, IG measured after 2 weeks; type: organism-based; conditions: in vivo, po, 336 h
[28] = Toxicity in C57BL/6 mouse assessed as effect on heart at 2 mg/kg, IG measured after 2 weeks by hematoxylin and eosin staining based imaging analysis; type: organism-based; conditions: in vivo, po, 336 h
[29] = Toxicity in C57BL/6 mouse assessed as effect on lung at 2 mg/kg, IG measured after 2 weeks by hematoxylin and eosin staining based imaging analysis; type: organism-based; conditions: in vivo, po, 336 h
[30] = tested on: PC-3; assay: Induction of ROS generation in human PC-3 cells assessed as intracellular ROS level at 250 nM measured after 48 hrs by DCFH-DA staining based flowcytometry method (reference value: 55.2 %); type: functional
[31] = tested on: PC-3; assay: Induction of ROS generation in human PC-3 cells assessed as intracellular ROS level at 500 nM measured after 48 hrs by DCFH-DA staining based flowcytometry method (reference value: 55.2 %); type: functional
[32] = tested on: DU-145; assay: Induction of ROS generation in human DU-145 cells assessed as intracellular ROS level at 1.5 uM measured after 48 hrs by DCFH-DA staining based flowcytometry method (reference value: 52 %); type: functional
[33] = tested on: DU-145; assay: Induction of ROS generation in human DU-145 cells assessed as intracellular ROS level at 6 uM measured after 48 hrs by DCFH-DA staining based flowcytometry method (reference value: 52 %); type: functional
[34] = tested on: DU-145; assay: Induction of ROS generation in human DU-145 cells assessed as intracellular ROS level at 3 uM pretreated with NAC followed by compound treatment measured after 48 hrs by DCFH-DA staining based flowcytometry method (reference value: 75.1 %); type: functional

For `Cc1ccc(/C=N/NC(=S)Nc2ccc(C(=O)NCCc3c(C)[nH]c4ccccc34)cc2)nc1`, the IC50 [1] was 1.44 µM, the IC50 [2] was 19.5 µM and the inhibition [3] was “Dose-dependent effect”. The inhibition [4] was “Active”, the inhibition [5] was “Active” and the Activity [6] was 29.04%. For the same compound, the Activity [7] was “Active”, the viability at 0.025 µM [8] was 98.5% and the Activity [9] was 2.06%. The Activity [10] was 8.91%, the Activity [11] was 5.76% and the Activity [12] was 56.2%. For the same compound, the viability at 0.5 µM [13] was 90.2%, the Activity [14] was 3.78% and the Activity [15] was 10.6%. For the same compound, the Activity [16] was 22.5%, the Activity [17] was 4.81% and the Activity [18] was 10.5%. For the same compound, the Activity [19] was 38.5%, the Activity [20] was “Active” and the Activity [21] was “Active”. For the same compound, the Activity [22] was “Active”, the Activity [23] was “Active” and the Activity [24] was “Dose-dependent effect”. For the same compound, the Activity [25] was “Active”, the inhibition [26] was “inactive” and the Activity [27] was “Non-Toxic”. For the same compound, the Activity [28] was “Non-Toxic”, the Activity [29] was “Non-Toxic” and the Activity [30] was 87%. It also gave an Activity [31] of 98.9%, an Activity [32] of 71.3% and an Activity [33] of 86.2%. For the same compound, the Activity [34] was 60.1%.
